US20070141635A1, “Novel translocation assay” (priority 2003, published 2007)

Assays:
GLUT1 = conditions: Perini et al., Diabetes 53:41-52, 2004; cited from earlier work
GLUT4 = conditions: cited from earlier work
[1] = test system: 3T3-L1 adipocytes expressing HA-GLUT4 WT; assay: Continuous anti-HA antibody uptake (GLUT4 recycling) experiment; type: cell-based
Protocol: For continuous antibody uptake experiments, cells were incubated for 20 min with or without insulin, whereafter anti-HA (50 μg/ml) or non-relevant antibody was added. Cells that were used to determine the total amount of HA-GLUT4 were not incubated with antibody during this 37° C. incubation. After incubation, the cells were fixed and quenched as described above, and incubated for 20 min with 5% NSS and 0.1% saponin. Cells that were used to determine the total cellular amount of HA-GLUT4 were incubated for 60 min with anti-HA antibody or control antibody in PBS containing 2% NSS. All other cells were incubated with 2% NSS without antibody. Subsequently, the cells were incubated with ALEXA488-conjugated goat-anti-mouse antibody and ALEXA594-conjugated WGA, washed and analysed. The amount of specific anti-HA uptake was expressed as a percentage of total cellular immuno-reactive HA-GLUT4.
To analyze the exchange of GLUT4 with the cell surface under steady state conditions, studies were performed in which live cells were incubated with anti-HA antibody at 37° C. (FIG. 5). […] 3T3-L1 adipocytes expressing HA-GLUT4 WT were stimulated for 2 h with 200 nM insulin in the presence of anti-HA antibody, washed extensively, incubated for 2 h without insulin and anti-HA, and incubated for a further 20 min in the absence (FIG. 5C) or presence (FIG. 5D) of 200 nM insulin.
For quantification of anti-HA antibody uptake, cells were preincubated for 20 min in the presence or absence of insulin after which anti-HA antibody or control antibody was added for various times (FIG. 5E). Antibody uptake was determined by labeling cells with fluorescent secondary antibody after fixation. Antibody uptake was expressed as a percentage of post-fixation anti-HA labeling.
To study this non-recycling GLUT4 pool in adipocytes, 3T3-L1 adipocytes expressing HA-GLUT4 WT were incubated at 37° C. in the continuous presence of anti-HA antibody. Cells were incubated with or without 200 nM insulin for 20 min, after which anti-HA antibody was added in the continued presence or absence of insulin. Cells were incubated further for up to 180 min, fixed, permeablilized, and incubated with fluorescent secondary antibody. The level of anti-HA antibody taken up by the cells was then expressed as a percentage of total post-fixation anti-HA labeling of permeablilized cells.

[2] = test system: 3T3-L1 adipocytes expressing HA-GLUT4 WT; assay: Inducing GLUT4 translocation with insulin followed by sucrose; type: cell-based; conditions: 0.3 or 0.6M sucrose for 2 hours after 20 minutes 200 nM insulin; serum free
Protocol: 3T3-L1 adipocytes expressing HA-GLUT4 WT were serum starved for 2 hours at 37° C. Following 20 minutes insulin stimulation with 200 nM insulin, cells were incubated for additional 2 hours in serum free medium supplemented with 0.2% BSA and 0.3 or 0.6M sucrose. After post-fixation anti-HA immunolabeling the level of cell surface HA-GLUT4 levels was determined as a percentage of total HA-GLUT4 detected after cell lysis. […] Furthermore, increasing concentrations of sucrose induce more GLUT4 to translocate to the plasma membrane in the presence of reduced levels of insulin.

[3] = test system: HA-GLUT4 expressing 3T3-L1 adipocytes; assay: Model of insulin resistance (chronic insulin stimulation, then acute insulin); type: cell-based; conditions: for level of GLUT4 at the plasma membrane after chronic insulin: FIG. 12A
Protocol: 3T3-L1 adipocytes retrovirally infected with GLUT4 (described in Example 1) were incubated 24 hours or 48 hours either with 600 nM insulin or with medium alone. After this chronic insulin stimulation (as indicated in FIG. 10) at 37° C. in a CO2 incubator, cells were washed and 200 nM insulin was added for additional 10 or 30 minutes. Cell surface levels of HA-GLUT4 were measured using the fluorescence based assay described supra and expressed as a percentage of total HA-GLUT4 detected in the cell. The experiment was also performed with the HA-GLUT4 TAIL mutant
HA-GLUT4 expressing 3T3-L1 adipocytes were grown in 96 well plates, incubated for 2 hours or overnight in medium supplemented with 10% fetal calf serum or no serum. 200 nM insulin in case of acute stimulation and 600 nM insulin in case of chronic stimulation have been used. After overnight stimulation cells were washed and 200 nM fresh insulin was added for 10 or 30 mln.

[4] = test system: HA-GLUT4-expressing 3T3-L1 adipocytes; assay: Fluorescence-based HA-GLUT4 translocation assay (GLUT4 at plasma membrane as percentage of total) in adipocytes; type: cell-based
Protocol: Retrovirally-transduced fibroblasts expressing HA-tagged GLUT 4 or a mutant therof were differentiated into adipocytes essentially as described above. These adipocytes were then subcultured for 30 hours. Insulin was then added at different time points, after which the cells were fixed in 3% formaldehyde. After washing and quenching with 50 mM glycine, cells were incubated for 20 min with 5% normal swine serum (NSS) in the absence or presence of 0.1% saponin to analyse the level of GLUT4 at the plasma membrane (PM) or the total cellular GLUT4 content, respectively. Cells were incubated for 60 min with a saturating concentration of either an antibody directed against the HA tag or a control non-relevant antibody (mouse IgG MOPC21) in PBS containing 2% NSS. After extensive washing, the cells were incubated for 20 min with 5% NSS in the presence or absence of 0.1% saponin to permeabilize all cells. Cells were incubated for 60 min with saturating concentrations of ALEXA488-conjugated goat-anti-mouse antibody (20 μg/ml) and ALEXA594-conjugated WGA (10 μg/ml) in PBS containing 2% NSS. After washing, fluorescence ([…]) was measured using the bottom-reading mode in a fluorescence microtiter plate reader (FLUOstar Galaxy, BMG Labtechnologies, Offenburg, Germany). The percentage of GLUT4 at the PM was calculated for each condition. ALEXA594-WGA fluorescence was used to correct for variation in cell density in each well.
To determine the extent of insulin-induced GLUT4 translocation using the assay described supra, HA-GLUT4-expressing 3T3-L1 adipocytes grown in 96 well plates were incubated for 2 h in the absence of serum, whereafter 200 nM insulin was added at various time points and cell surface levels of HA-GLUT4 were analysed by indirect immunofluorescence labeling (FIG. 2B). Saturating levels of anti-HA and secondary antibodies were used to ensure that substantially all HA-GLUT4 molecules were labeled. A non-relevant antibody was used at the same concentration to determine the non-specific binding of the anti-HA antibody. Insulin stimulated the appearance of HA-GLUT4 at the PM with a half-time of about 2.5 min reaching a plateau by 12 min which was maintained for at least 60 min. No specific anti-HA labeling was detected in non-infected cells (FIG. 2A).

[5] = test system: 3T3-L1 fibroblasts expressing HA-tagged GLUT4; assay: Fluorescence-based HA-GLUT4 translocation assay in fibroblasts; type: cell-based
[6] = test system: 3T3-L1 adipocytes expressing HA-GLUT4; assay: Single cycle GLUT4 internalization experiment; type: cell-based
Protocol: For single cycle internalization experiments cells were stimulated for 20 min with 200 nM insulin after starvation and washed on ice with ice-cold DMEM containing 20 mM HEPES pH 7.4 and 0.2% BSA. Cells were incubated with 100 nM wortmannin or 200 nM insulin and either anti-HA (25 μg/ml) or non-relevant antibody (MOPC21) in DMEM/HEPES/BSA for 1 h on ice. Wortmanin was added to abolish insulin signaling. […] Cells were washed extensively, then either 100 nM wortmanin or 200 nM insulin in DMEM/HEPES/BSA was added. The plate was then transferred to 37° C. and at different times, formaldehyde was added to the wells to a concentration of 3%. After 5 min the formaldehyde was washed away and residual amounts were quenched. The cells were incubated for 20 min with 5% NSS in the absence of saponin, labeled with ALEXA488-conjugated goat-anti-mouse antibody and ALEXA594-conjugated WGA, washed and analysed as described above.
GLUT4 WT molecules that were labeled with anti-HA antibody on ice were rapidly cleared from the cell surface as indicated by the disappearance of GLUT4 at early time points after transfer of the cells from ice to 37° C. (FIG. 4). After approximately 5 min the level of GLUT4 at the PM reached steady state in the presence but not in the absence of insulin, indicating recycling of GLUT4 back to the PM in insulin-stimulated cells. […]

In the case of `C[C@]12CC[C@H](O)CC1=CC[C@@H]1[C@@H]2CC[C@]2(C)C(=O)CC[C@@H]12` [DHEA, Dehydroepiandrosterone], the “effect on levels of GLUT1 at the plasma membrane” value (GLUT1) is given as “enhance levels of GLUT1 at the plasma membrane”.
In the case of `CO[C@@H]1C[C@@H](C[C@H]2CC[C@H](C)[C@H]([C@@H](C)C(=O)O)O2)O[C@]2(O[C@](C)([C@H]3CC[C@@](C)([C@@H]4O[C@@H]([C@H]5O[C@@](O)(CO)[C@H](C)C[C@@H]5C)C[C@@H]4C)O3)C[C@H]2C)[C@@H]1C` [Nigericin, nigericin], the “effect on insulin mediated GLUT4 translocation” value (GLUT4; Chu et al., J Cell Biochem. 2002;85:83-91) is listed as “inhibit insulin mediated GLUT4 translocation”.
With `C[C@@H]1C[C@@H]([C@H](O)CC2CC(=O)NC(=O)C2)C(=O)[C@@H](C)C1` [cycloheximide] the “GLUT4 that could not be labeled during antibody uptake” value ([1]; 10 mg/ml cycloheximide for 2 h prior to the addition of antibody, FIG. 6F) was 30%.
With `OC[C@H]1O[C@@](CO)(O[C@H]2O[C@H](CO)[C@@H](O)[C@H](O)[C@H]2O)[C@@H](O)[C@@H]1O` [sucrose] the “level of HA-GLUT4 translocated to the plasma membrane” value [2] was “dramatically increases”.
For insulin, the “levels of GLUT4 translocation after chronic insulin” value ([3]; 600 nM insulin 24 or 48 h in the absence of serum (-serum or KRP), then 200 nM insulin) was “little more than basal levels”, the “level of GLUT4 at the plasma membrane after chronic insulin” value ([3]; 600 nM insulin 24 h in the presence of serum) was “dramatically increased” and the “level of GLUT4 at the plasma membrane after chronic insulin” value ([3]; 600 nM insulin 48 h in the presence of serum) was “suppressed”. The “time for which plateau of HA-GLUT4 at the PM was maintained” value ([4]; 200 nM insulin) was “at least 60 min”, the “time to plateau of HA-GLUT4 at the PM” value ([4]; 200 nM insulin after 2 h in the absence of serum) was at most 12 min and the “half-time of appearance of HA-GLUT4 at the PM” value ([4]; 200 nM insulin after 2 h in the absence of serum, 96 well plates) was “about 2.5 min”. For the same compound, the “effect of long-term insulin treatment on cell surface HA-GLUT4 levels” value ([4]; 200 nM insulin for up to 3 hours, FIG. 6H) was “did not drastically down-regulate cell surface GLUT4 levels”, the “level of GLUT4 at the PM as percentage of total specific fluorescence” value ([4]; 200 nM insulin, basal value 4%) was 34% and the “increase in cell surface GLUT4 levels in response to insulin stimulation” value ([4]; adipocytes, 200 nM insulin) was about 8 fold. The “time to maximum level of surface GLUT4” value ([5]; followed by rapid reduction) was 6 min, the “increase in surface GLUT4 above non-stimulated cells” value ([5]; maximum level) was 5 fold and the “HA-GLUT4 expressed in the cell that did not translocate to the membrane during the experiment” value ([1]; 200 nM insulin, up to 180 min) was “approximately 30%”. For the same compound, the “HA-GLUT4 labeled by anti-HA antibody uptake, percentage of total post-fixation labeling” value ([1]; 200 nM insulin, up to 180 min, FIG. 6A) was “approximately 30%”, the “size of the recycling pool of GLUT4” value ([1]; different doses of insulin, FIG. 8) was “incrementally increased with increasing doses” and the “effect on GLUT4 internalization rate” value ([6]; 200 nM insulin versus 100 nM wortmannin (basal), GLUT4 WT and TAIL) was “unaffected”. For the same compound, the “time until level of GLUT4 at the PM reached steady state” value ([6]; in the presence of 200 nM insulin, after transfer from ice to 37° C.) was “approximately 5 min”.
For “margatoxin (TIINVKCTSPKQCLPPCKAQFGQSAGAKCMNGKCKCYPH; UniProt P40755 1-39, looked up)”, the “effect on level of GLUT4 translocated to the plasma membrane” value (GLUT4; suppression of Kv1.3 activity, Xu et al, Proc Natl Acad Sci USA. 101:3112-3117, 2004) is given as “increase the level of GLUT4 translocated to the plasma membrane”.
